According to publication PMC8588420 (Molecules, 2021):

Assays:
[1] = RP-TLC chromatographic lipophilicity parameter (RMW); assay type: physicochemical; conditions: RP2, RP18, RP18W plates; methanol-water, propan-1-ol-water, acetonitrile-water
Procedure: (§1) The lipophilicity study was performed on chromatographic plates for RP-TLC and NP-TLC analysis purchased from Merck (Darmstadt, Germany): silica gel RP18F254 (aluminum plates, No. 1.05559), silica gel RP2F254 (glass plates, No. 1.05747), and RP18WF254 (glass plates, No. 1.13142) were applied as stationary phases in the reversed-phase system. In the case of the NP-TLC system, aluminum chromatographic plates precoated with silica gel 60F254 without (No. 1.05554) and with a concentrating zone (No. 1.05583), glass plates precoated with silica gel 60CNF254 (No. 1.16464), and aluminum plates coated with the mixture of silica gel 60 and Kieselguhr F254 were tested (No. 1.05567).
The lipophilicity studies of the tested compounds were carried out on chromatographic plates 10 cm × 10 cm developed using mobile phases (50 mL) prepared by mixing the respective amounts of the organic modifier (methanol/acetonitrile/propan-1-ol/acetone) and water. In the case of NP-TLC analysis, the addition of 2.4% glacial acetic acid in the mobile phase methanol-water was used. […] The average value of RF (retardation factor) was determined in every case.
(§2) In this study, the chromatographic lipophilicity parameters of both studied compounds were calculated based on the retardation factor (RF) obtained for metformin and phenformin in each mobile phase and chromatographic plates used as the stationary phase. […]

[2] = NP-TLC chromatographic lipophilicity parameter (RMW); assay type: physicochemical; conditions: for RMW range over NP-TLC plates: four chromatographic plates; for RMW: NP-TLC
Procedure: as §1
The lipophilicity studies of the tested compounds were carried out on chromatographic plates 10 cm × 10 cm developed using mobile phases (50 mL) prepared by mixing the respective amounts of the organic modifier (methanol/acetonitrile/propan-1-ol/acetone) and water. In the case of NP-TLC analysis, the addition of 2.4% glacial acetic acid in the mobile phase methanol-water was used. The organic modifier concentrations (volume fraction, v/v) varied in a range from 0.40 to 0.90 in constant steps of 0.10. […] Chromatography was performed in a classical developing chamber, which was previously saturated with mobile phase vapors for 20 min. The migration distance was 7.0 cm. After the development, the plates were dried at room temperature (20 ± 1 °C) and visualized in UV light (λ = 254 nm) as the maximum wavelength for both biguanides. All analyses were repeated in triplicate. The average value of RF (retardation factor) was determined in every case.
as §2
Then, a linear correlation between the RM of the tested compounds and the volume ratio of the organic solvent in the mobile phase was performed for every chromatographic plate. The extrapolation of calculated RM values to the zero concentration of the organic modifier (i.e., to pure water) in accordance with Soczewiński-Wachtmeister’s Equation (2) allowed determining a valuable chromatographic parameter of lipophilicity expressed as RMW [1]. RM = RMW − S⋅φ(2) where RMW is the chromatographic parameter obtained using Soczewiński–Wachtmeister’s Equation (2), S is the regression slope, and φ is the volume fraction of the organic modifier (e.g., methanol, propan-1-ol, acetonitrile, acetone) in the mobile phase composition. Statistica v. 13.3 software (StatSoft, Kraków, Poland) was used to determine the parameters of these linear relationships.

[3] = n-octanol-water, literature value ref 46; cited from earlier work

Row | RMW range over RP-TLC systems [1] | RMW range over NP-TLC plates ([2]; acetone-water) | RMW range over NP-TLC plates ([2]; methanol-water-acetic acid) | RMW ([2]; Silica gel 60F254, acetone-water) | RMW ([2]; Silica gel 60F254 with concentrating zone, methanol-water-acetic acid) | SMILES | logPow [3]
1 | −4.877 to 0.960 | −4.127 to 1.242 | −6.657 to 0.833 | – | – | CN(C)C(=N)N=C(N)N [Metformin, dimethylbiguanide] | –
2 | 0.142 to 0.728 | −4.383–0.790 | −1.983–6.170 | -4.383 | -1.983 | [H]/N=C(/N)N/C(=N/[H])NCCc1ccccc1 [Phenformin] | −0.83
